Patent publication US20250154123A1, “COOLING COMPOUNDS AND COMPOSITIONS” (V. MANE FILS, priority 2022, published 2025)

How the values were obtained:
Assay type in all cases: cell-based
hTRPM8 [1] = target: T1, hTRPM8 (Homo sapiens, UniProt Q7Z2W7); test: Secondary in vitro screening on hTRPM8 at 5 μM versus WS-3; conditions: WS3 as reference compound
T1 construct: expressed in transfected cells; host or cells: CHO-KJ cells [sic]
Experimental: (§1) The compounds were evaluated in vitro on CHO-KJ cells expressing the gene encoding the hTRPM8 ion channel (Table 1). Channel activation is determined by fluorometric measurement of […] calcium using FLUO-8. The activity of the compounds was measured relative to icilin (known hTRPM8 agonist).
The compounds 1 to 40 were tested on hTRPM8 at 5 μM using WS3 as the reference compound (Table 2).

hTRPM8 ion channel = target: T2, hTRPM8 ion channel (Homo sapiens, UniProt Q7Z2W7); test: Primary in vitro screening on hTRPM8 (CHO-KJ cells, FLUO-8 calcium fluorometry, relative to icilin); conditions: for % activation vs iciline: CHO-KJ cells expressing hTRPM8
T2 construct: expressed in transfected cells; host or cells: CHO-KJ cells [sic]
T2 sequence (Q7Z2W7 whole entry): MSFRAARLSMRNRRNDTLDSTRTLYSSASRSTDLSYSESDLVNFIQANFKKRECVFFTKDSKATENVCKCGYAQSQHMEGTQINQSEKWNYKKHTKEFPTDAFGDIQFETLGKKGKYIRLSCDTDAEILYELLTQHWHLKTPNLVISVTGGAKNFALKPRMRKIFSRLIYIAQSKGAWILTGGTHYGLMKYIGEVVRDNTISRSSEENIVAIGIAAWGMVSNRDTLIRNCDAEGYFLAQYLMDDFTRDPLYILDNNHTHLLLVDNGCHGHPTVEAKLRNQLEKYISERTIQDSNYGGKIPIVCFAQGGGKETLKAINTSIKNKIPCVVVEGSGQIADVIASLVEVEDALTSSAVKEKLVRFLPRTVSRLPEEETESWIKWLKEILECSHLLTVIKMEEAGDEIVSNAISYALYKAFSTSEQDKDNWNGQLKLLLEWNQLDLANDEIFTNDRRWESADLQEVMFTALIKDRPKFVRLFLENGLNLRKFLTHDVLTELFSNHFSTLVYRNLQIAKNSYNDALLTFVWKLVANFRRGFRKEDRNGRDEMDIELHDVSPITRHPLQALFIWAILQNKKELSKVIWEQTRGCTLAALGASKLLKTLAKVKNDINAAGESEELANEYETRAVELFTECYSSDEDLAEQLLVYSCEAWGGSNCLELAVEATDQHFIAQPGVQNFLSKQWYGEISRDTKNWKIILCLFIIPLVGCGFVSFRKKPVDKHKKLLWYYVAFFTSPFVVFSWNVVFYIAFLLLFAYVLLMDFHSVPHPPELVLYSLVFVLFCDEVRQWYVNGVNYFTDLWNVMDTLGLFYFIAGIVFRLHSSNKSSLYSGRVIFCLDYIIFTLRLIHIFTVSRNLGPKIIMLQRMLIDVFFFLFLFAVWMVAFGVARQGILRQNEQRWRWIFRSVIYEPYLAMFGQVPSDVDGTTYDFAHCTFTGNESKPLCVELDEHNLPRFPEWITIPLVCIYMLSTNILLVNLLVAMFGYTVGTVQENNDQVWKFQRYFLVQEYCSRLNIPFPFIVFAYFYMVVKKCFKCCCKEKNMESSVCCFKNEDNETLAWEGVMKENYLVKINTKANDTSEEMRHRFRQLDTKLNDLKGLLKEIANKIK
Experimental: as §1

hTRPM8 [2] = target: T1, hTRPM8; test: EC50 measurement on hTRPM8 (response curve); conditions: for EC50: hTRPM8, response curve
Experimental: as §1
A response curve was developed for compounds 1, 3, 5 and 37 which made it possible to determine the EC50 (half maximal effective concentration) values on hTRPM8 and compare them with the EC50 values of the comparative compounds (Table 3).

T1 sequence (Q7Z2W7 whole entry): as above

SMILES: CC(C)C1CCC(C)(C)CC1(CO)CO (single isomer, unassigned) [Compound 30, (2-isopropyl-5,5-dimethylcyclohexane-1,1-diyl)dimethanol]
- activation at 5 µM (hTRPM8 [1]): 71%

SMILES: CC1OCC2(CO1)C[C@H](C)CC[C@H]2C(C)C (stereo partly drawn) [Compound 2, (7S,1OR)-7-isopropyl-3,10-dimethyl-2,4-dioxaspiro[5.5]undecane]
- % activation vs iciline (hTRPM8 ion channel; concentration 109 μM): 26%
- activation at 5 µM (hTRPM8 [1]): 3%

SMILES: CC(C)[C@@H]1CC[C@@H](C)CC12COC(C)(C)OC2 [Compound 3, (7S,1OR)-7-isopropyl-3,3,10-trimethyl-2,4-dioxaspiro[5.5]undecane]
- EC50 on hTRPM8 compared with WS-3 and WS-5 (hTRPM8 [2]; Table 3): EC50 values lower than WS-3™ and similar to WS-5™
- EC50 (hTRPM8 [2]): 2.5 µM
- % activation vs iciline (hTRPM8 ion channel; concentration 104 μM): 99%
- activation on hTRPM8 compared with comparative molecules (Physcool, WS-5, WS-3, l-isopulegol, l-menthol, menthyl lactate) (hTRPM8 ion channel; primary screening, Table 1): greater activations than the comparative molecules
- activation at 5 µM (hTRPM8 [1]): 94%

SMILES: CCC1OCC2(CO1)C[C@H](C)CC[C@H]2C(C)C (stereo partly drawn) [Compound 4, (7S,1OR)-3-ethyl-7-isopropyl-10-methyl-2,4-dioxaspiro[5.5]undecane]
- % activation vs iciline (hTRPM8 ion channel; concentration 101 μM): 39%
- activation at 5 µM (hTRPM8 [1]): -1%

SMILES: CC(C)[C@@H]1CC[C@@H](C)CC12COCOC2 [Compound 6, (7S,1OR)-7-isopropyl-10-methyl-2,4-dioxaspiro[5.5]undecane]
- % activation vs iciline (hTRPM8 ion channel; concentration 104 μM): 32%
- activation at 5 µM (hTRPM8 [1]): 3%

SMILES: CC(C)[C@@H]1CC[C@@H](C)CC12COC1(C[C@H](C)CC[C@H]1C(C)C)OC2 (stereo partly drawn) [Compound 7, (1S,4R,10S,13R)-1,10-diisopropyl-4,13-dimethyl-7,16-dioxadispiro [5.2.5^90.2^6]hexadecane]
- activation at 5 µM (hTRPM8 [1]): 0%

SMILES: CC(C)[C@@H]1CC[C@@H](C)CC1(C=O)C=O [Compound 8, (2S,5R)-2-isopropyl-5-methylcyclohexane-1,1-dicarbaldehyde]
- activation at 5 µM (hTRPM8 [1]): 6%

SMILES: CC(=O)OCC1(COC(C)=O)C[C@H](C)CC[C@H]1C(C)C [Compound 9, ((2S,5R)-2-isopropyl-5-methylcyclohexane-1,1-diyl)bis(methylene) diacetate]
- activation at 5 µM (hTRPM8 [1]): 0%

SMILES: CC1CC(C)(C)CC(CO)(CO)C1 (centres unmarked) [Compound 10, (3,3,5-trimethylcyclohexane-1,1-diyl)dimethanol]
- activation at 5 µM (hTRPM8 [1]): 10%

SMILES: CC1CC(C)(C)CC2(COC(C)OC2)C1 (centres unmarked) [Compound 11, 3,8,8,10-tetramethyl-2,4-dioxaspiro[5.5]undecane]
- activation at 5 µM (hTRPM8 [1]): 3%

SMILES: CC1CC(C)(C)CC2(COC(C)(C)OC2)C1 (centres unmarked) [Compound 12, 3,3,8,8,10-pentamethyl-2,4-dioxaspiro[5.5]undecane]
- activation at 5 µM (hTRPM8 [1]): 1%

SMILES: CCC1(C)OCC2(CO1)C[C@H](C)CC[C@H]2C(C)C (stereo partly drawn) [Compound 13, (7S,1OR)-3-ethyl-7-isopropyl-3,10-dimethyl-2,4-dioxaspiro[5.5]undecane]
- activation at 5 µM (hTRPM8 [1]): 1%

SMILES: CCCC1OCC2(CO1)C[C@H](C)CC[C@H]2C(C)C (stereo partly drawn) [Compound 14, (7S,1OR)-7-isopropyl-10-methyl-3-propyl-2,4-dioxaspiro[5.5]undecane]
- activation at 5 µM (hTRPM8 [1]): -1%

SMILES: CC(C)C1OCC2(CO1)C[C@H](C)CC[C@H]2C(C)C (stereo partly drawn) [Compound 15, (7S,1OR)-3,7-diisopropyl-10-methyl-2,4-dioxaspiro[5.5]undecane]
- activation at 5 µM (hTRPM8 [1]): -6%

SMILES: CCC(C)C1OCC2(CO1)C[C@H](C)CC[C@H]2C(C)C (stereo partly drawn) [Compound 16, (7S,1OR)-3-(sec-butyl)-7-isopropyl-10-methyl-2,4-dioxaspiro[5.5]undecane]
- activation at 5 µM (hTRPM8 [1]): -1%

SMILES: COCC1(COC)C[C@H](C)CC[C@H]1C(C)C [Compound 17, (2S,5R)-2-isopropyl-1,1-bis(methoxymethyl)-5-methylcyclohexane]
- activation at 5 µM (hTRPM8 [1]): 1%

SMILES: CC(C)[C@@H]1CC[C@@H](C)CC12COC(c1ccccc1)OC2 (stereo partly drawn) [Compound 18, (7S,1OR)-7-isopropyl-10-methyl-3-phenyl-2,4-dioxaspiro[5.5]undecane]
- activation at 5 µM (hTRPM8 [1]): 3%

SMILES: CC1(C)CCCC(CO)(CO)C1 [Compound 20, (3,3-dimethylcyclohexane-1,1-diyl)dimethanol]
- activation at 5 µM (hTRPM8 [1]): 4%

SMILES: CC(C)[C@@H]1CC[C@@H](C)CC1(COC(=O)CCC(=O)O)COC(=O)CCC(=O)O [Compound 21, 4,4′-((((2S,5R)-2-isopropyl-5-methylcyclohexane-1,1-diyl)bis (methylene))bis(oxy))bis(4-oxobutanoic acid)]
- activation at 5 µM (hTRPM8 [1]): -2%

SMILES: CC(C)[C@@H]1CC[C@@H](C)CC12COC(C)(c1ccccc1)OC2 (stereo partly drawn) [Compound 22, (7S,1OR)-7-isopropyl-3,10-dimethyl-3-phenyl-2,4-dioxaspiro[5.5]undecane]
- activation at 5 µM (hTRPM8 [1]): 13%

SMILES: CC(C)[C@@H]1CC[C@@H](C)CC12COC(c1ccccn1)OC2 (stereo partly drawn) [Compound 23, 2-((7S,10R)-7-isopropyl-10-methyl-2,4-dioxaspiro[5.5]undecan-3-yl) pyridine]
- activation at 5 µM (hTRPM8 [1]): 4%

SMILES: CC(C)[C@@H]1CC[C@@H](C)CC12COC(c1cccs1)OC2 (stereo partly drawn) [Compound 24, (7S,1OR)-7-isopropyl-10-methyl-3-(thiophen-2-yl)-2,4-dioxaspiro[5.5]undecane]
- activation at 5 µM (hTRPM8 [1]): 3%

SMILES: CSCCC1OCC2(CO1)C[C@H](C)CC[C@H]2C(C)C (stereo partly drawn) [Compound 25, (7S,1OR)-7-isopropyl-10-methyl-3-(2-(methylthio)ethyl)-2,4-dioxaspiro [5.5]undecane]
- activation at 5 µM (hTRPM8 [1]): 3%

SMILES: CC1OCC2(CCCC(C)(C)C2)CO1 (centres unmarked) [Compound 26, 3,8,8-trimethyl-2,4-dioxaspiro[5.5]undecane]
- activation at 5 µM (hTRPM8 [1]): 3%

SMILES: CCC(C)C1CCCCC1(CO)CO (centres unmarked) [Compound 27, (2-(sec-butyl)cyclohexane-1,1-diyl)dimethanol]
- activation at 5 µM (hTRPM8 [1]): 40%

SMILES: CCOC(=O)C1OCC2(CO1)C[C@H](C)CC[C@H]2C(C)C (stereo partly drawn) [Compound 28, Ethyl (7S,1OR)-7-isopropyl-10-methyl-2,4-dioxaspiro[5.5]undecane-3-carboxylate]
- activation at 5 µM (hTRPM8 [1]): 5%

SMILES: CC(C)[C@@H]1CC[C@@H](C)CC1(CCO)CCO [Compound 29, 2,2′-((2S,5R)-2-isopropyl-5-methylcyclohexane-1,1-diyl)bis(ethan-1-ol)]
- activation at 5 µM (hTRPM8 [1]): 26%

SMILES: CCC(C)C1CCCCC12COC(C)OC2 (centres unmarked) [Compound 31, 7-(sec-butyl)-3-methyl-2,4-dioxaspiro[5.5]undecane]
- activation at 5 µM (hTRPM8 [1]): -2%

SMILES: CC(=O)OCC1(CO)C[C@H](C)CC[C@H]1C(C)C (stereo partly drawn) [Compound 32, ((2S,5R)-1-(hydroxymethyl)-2-isopropyl-5-methylcyclohexyl)methyl acetate]
- activation at 5 µM (hTRPM8 [1]): 4%

SMILES: CC1OCC2(CO1)CC(C)(C)CCC2C(C)C (centres unmarked) [Compound 33, 7-isopropyl-3,10,10-trimethyl-2,4-dioxaspiro[5.5]undecane]
- activation at 5 µM (hTRPM8 [1]): 1%

SMILES: CC(C)[C@@H]1CC[C@@H](C)CC1(C(C)O)C(C)O (stereo partly drawn) [Compound 34, 1,1′-((2S,5R)-2-isopropyl-5-methylcyclohexane-1,1-diyl)bis(ethan-1-ol)]
- activation at 5 µM (hTRPM8 [1]): 21%

SMILES: C=C(C)[C@@H]1CC[C@@H](C)C[C@H]1C(CO)CO [Compound 35, 2-((1R,2R,5R)-5-methyl-2-(prop-1-en-2-yl)cyclohexyl)propane-1,3-diol]
- activation at 5 µM (hTRPM8 [1]): 14%

SMILES: C=C(C)[C@@H]1CC[C@@H](C)C[C@H]1C1COC(C)OC1 (stereo partly drawn) [Compound 36, 2-methyl-5-((1R,2R,5R)-5-methyl-2-(prop-1-en-2-yl)cyclohexyl)-1,3-dioxane]
- activation at 5 µM (hTRPM8 [1]): 6%

SMILES: CC(C)[C@@H]1CC[C@@H](C)C[C@H]1C(CO)CO [Compound 37, 2-((1R,2S,5R)-2-isopropyl-5-methylcyclohexyl)propane-1,3-diol]
- EC50 (hTRPM8 [2]): 70 µM
- activation at 5 µM (hTRPM8 [1]): 65%

SMILES: CC(C)[C@@H]1CC[C@@H](C)CC1(CO)COCc1ccccc1 (stereo partly drawn) [Compound 38, ((2S,5R)-1-((benzyloxy)methyl)-2-isopropyl-5-methylcyclohexyl) methanol]
- activation at 5 µM (hTRPM8 [1]): 8%

SMILES: CC(C)[C@@H]1CC[C@@H](C)CC1(CO)C(=O)O (stereo partly drawn) [Compound 39, (2S,5R)-1-(hydroxymethyl)-2-isopropyl-5-methylcyclohexane-1-carboxylic acid]
- activation at 5 µM (hTRPM8 [1]): 16%

SMILES: CC1(C)CC(C)(C)CC(CO)(CO)C1 [Compound 40, (3,3,5,5-tetramethylcyclohexane-1,1-diyl)dimethanol]
- activation at 5 µM (hTRPM8 [1]): 8%

SMILES: CC(C)[C@@H]1CC[C@@H](C)C[C@H]1OC(=O)CCC(=O)O [Physcool ™, reference compound]
- % activation vs iciline (hTRPM8 ion channel): -2%

SMILES: CCNC(=O)C1CC(C)CCC1C(C)C (centres unmarked) [WS-3 ™, reference compound]
- EC50 (hTRPM8 [2]): 8 µM
- % activation vs iciline (hTRPM8 ion channel; concentration 119 μM): 76%

SMILES: CCOC(=O)CNC(=O)[C@@H]1C[C@H](C)CC[C@H]1C(C)C [WS-5 ™, reference compound]
- EC50 (hTRPM8 [2]): 1 µM
- % activation vs iciline (hTRPM8 ion channel): 73%

SMILES: C=C(C)[C@@H]1CC[C@@H](C)C[C@H]1O [l-isopulegol, reference compound]
- % activation vs iciline (hTRPM8 ion channel; concentration 123 μM): 51%

SMILES: CC(C)[C@@H]1CC[C@@H](C)C[C@H]1O [l-menthol, reference compound]
- % activation vs iciline (hTRPM8 ion channel; concentration 114 μM): 78%

SMILES: CC1CCC(C(C)C)C(OC(=O)C(C)O)C1 (centres unmarked) [menthyl lactate, reference compound]
- % activation vs iciline (hTRPM8 ion channel; concentration 116 μM): 53%
